Results as given in patent US8957238B2, “Process for preparing malathion for pharmaceutical use” (priority 2005, dated 2015).
Like-named read-outs stand apart in the source and are kept apart here.

Columns and labels:
[1] = can cause death from hypoxia; cited from earlier work
acetylcholinesterase = acetylcholinesterase (Homo sapiens, UniProt P22303); conditions: cited from earlier work
people = conditions: after spraying during insect eradication programs; cited from earlier work
[2] = Storage stability of malathion prepared by the process of the invention, HPLC after storage (Example 7, Table IV); type: physicochemical
Description: The malathion prepared by the process of the invention was tested for storage stability. Malathion prepared by the process of the invention was stored under a variety of different temperature and humidity conditions for up to three (3) months. […] The purity of the sample was determined after storage using HPLC.
Table IV presents the analytical data showing storage of two, different batches of malathion after storage under a variety of different conditions.
MeOOSPO, MeOSSPO, malaxon, MeOOSPS, diethyl fumarate, dimethyl malathion, methyl malathion, O,O-methyl, ethyl S-(1,2-dicarboethoxy)ethyl phosphorodithioate, tetraethyl dithiosuccinate, isomalathion, malathion carboxylic acids, mercaptosuccinate and the tetraethyl thiodisuccinate were assayed for by HPLC. The mobile phase was a mixture of water, acetonitrile and methanol (480:370:150) and one drop of 85% phosphoric acid for each […] of mobile phase. Method validation was performed and system reproducibility, linearity, repeatability, intermediate precision, recovery of related compounds and sensitivity were assessed according to standard methology (U.S. Pharmacopeia, 2004, U.S. Pharmacopeial Convention, Inc., 12601 Twinbrook Parkway, Rockville, Md. 20852). If necessary, the mobile phase composition and/or flow rate were adjusted to meet the chromatographic parameters.

cholinesterase enzymes = conditions: cited from earlier work
[3] = cited from earlier work
mice = conditions: after storage for 6 months at 40° C.; cited from earlier work
[4] = Storage at 25° C., 60% relative humidity for 3 months
[5] = Storage at 30° C. and 60% relative humidity for 3 months
[6] = Storage at 40° C. and 75% relative humidity for 3 months

acetylcholinesterase, sequence (P22303 32-614): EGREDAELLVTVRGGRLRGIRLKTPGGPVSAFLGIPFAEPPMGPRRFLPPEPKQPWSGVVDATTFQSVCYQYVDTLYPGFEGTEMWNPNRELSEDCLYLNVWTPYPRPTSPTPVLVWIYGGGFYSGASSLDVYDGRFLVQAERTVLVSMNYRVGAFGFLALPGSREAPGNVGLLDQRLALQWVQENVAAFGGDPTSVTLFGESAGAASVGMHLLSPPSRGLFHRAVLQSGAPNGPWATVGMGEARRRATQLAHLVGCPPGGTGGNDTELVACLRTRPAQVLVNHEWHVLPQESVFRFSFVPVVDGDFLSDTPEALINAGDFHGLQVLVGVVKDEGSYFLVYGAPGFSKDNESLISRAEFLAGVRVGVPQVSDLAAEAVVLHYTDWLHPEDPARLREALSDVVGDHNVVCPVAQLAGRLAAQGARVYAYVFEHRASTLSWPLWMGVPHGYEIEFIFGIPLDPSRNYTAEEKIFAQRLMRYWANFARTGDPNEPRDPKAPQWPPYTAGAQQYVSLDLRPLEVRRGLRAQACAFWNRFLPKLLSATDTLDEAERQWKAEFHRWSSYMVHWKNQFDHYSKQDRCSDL

CCOC(=O)CC(SP(=S)(OC)OCC)C(=O)OCC (stereo not drawn) [O,O-methyl,ethyl-S-(1,2-dicarboethoxy)ethyl-phosphorodithioate]
pulmonary toxicity [1]: exhibit pulmonary toxicity

COP(=O)(OC)SC [MeOOSPO, O,O,S-trimethyl phosphorothioate]
pulmonary toxicity [1]: exhibit pulmonary toxicity

CCOC(=O)CC(SP(=O)(OC)SC)C(=O)OCC (centres unmarked) [Isomalathion]
activity against acetylcholinesterase as compared with malathion (acetylcholinesterase): approximately 1,000 times
death in people (people): cause death in people
pulmonary toxicity [1]: exhibit pulmonary toxicity

CCOC(=O)CC(SP(=S)(OC)OC)C(=O)OCC (centres unmarked) [Batch I, [(dimethoxyphosphinothioyl)thio]butanedioic acid diethyl ester]
Diethyl fumarate in malathion ([2]; Baseline, time 0): <0.01 % (w/w)
Dimethyl malathion in malathion ([2]; Baseline, time 0): <0.02 % (w/w)
Malaoxon in malathion ([2]; Baseline, time 0): <0.05 % (w/w)
Malathion Purity ([2]; Baseline, time 0): 99.5 % (w/w)
MeOOSPO in malathion ([2]; Baseline, time 0): <0.04 % (w/w)
MeOOSPS in malathion ([2]; Baseline, time 0): 0.1 % (w/w)
MeOSSPO in malathion ([2]; Baseline, time 0): <0.02 % (w/w)
Methyl malathion in malathion ([2]; Baseline, time 0): 0.06 % (w/w)
Diethyl fumarate in malathion ([2]; Storage at 5° C. for 3 months): <0.01 % (w/w)
Dimethyl malathion in malathion ([2]; Storage at 5° C. for 3 months): <0.02 % (w/w)
Malaoxon in malathion ([2]; Storage at 5° C. for 3 months): <0.02 % (w/w)
Malathion Purity ([2]; Storage at 5° C. for 3 months): 99.7 % (w/w)
MeOOSPO in malathion ([2]; Storage at 5° C. for 3 months): <0.04 % (w/w)
MeOOSPS in malathion ([2]; Storage at 5° C. for 3 months): 0.1 % (w/w)
MeOSSPO in malathion ([2]; Storage at 5° C. for 3 months): <0.02 % (w/w)
Methyl malathion in malathion ([2]; Storage at 5° C. for 3 months): 0.06 % (w/w)
Diethyl fumarate in malathion [2, 4]: <0.01 % (w/w)
Dimethyl malathion in malathion [2, 4]: <0.02 % (w/w)
Malaoxon in malathion [2, 4]: <0.02 % (w/w)
Malathion Purity [2, 4]: 99.0 % (w/w)
MeOOSPO in malathion [2, 4]: <0.04 % (w/w)
MeOOSPS in malathion [2, 4]: 0.1 % (w/w)
MeOSSPO in malathion [2, 4]: <0.02 % (w/w)
Methyl malathion in malathion [2, 4]: 0.06 % (w/w)
Diethyl fumarate in malathion [2, 5]: <0.01 % (w/w)
Dimethyl malathion in malathion [2, 5]: <0.02 % (w/w)
Malaoxon in malathion [2, 5]: <0.02 % (w/w)
Malathion Purity [2, 5]: 99.0 % (w/w)
MeOOSPO in malathion [2, 5]: <0.04 % (w/w)
MeOOSPS in malathion [2, 5]: 0.1 % (w/w)
MeOSSPO in malathion [2, 5]: <0.02 % (w/w)
Methyl malathion in malathion [2, 5]: 0.06 % (w/w)
Diethyl fumarate in malathion [2, 6]: <0.02 % (w/w)
Dimethyl malathion in malathion [2, 6]: <0.02 % (w/w)
Malaoxon in malathion [2, 6]: <0.05 % (w/w)
Malathion Purity [2, 6]: 97.5 % (w/w)
MeOOSPO in malathion [2, 6]: 0.05 % (w/w)
MeOOSPS in malathion [2, 6]: 0.2 % (w/w)
MeOSSPO in malathion [2, 6]: <0.02 % (w/w)
Methyl malathion in malathion [2, 6]: 0.06 % (w/w)

CCOC(=O)CC(SP(=O)(OC)OC)C(=O)OCC (centres unmarked) [Malaoxon]
inhibition of cholinesterase enzymes (cholinesterase enzymes): inhibits cholinesterase enzymes

CCOC(=O)CC(SP(=S)(OC)OC)C(=O)OCC (centres unmarked) [malathion prepared by the process of the invention] [[(dimethoxyphosphinothioyl)thio]butanedioic acid diethyl ester]
Malathion Purity ([2]; Storage at 5° C. for 3 months): greater than 98.5 % (w/w)
Malathion Purity [2, 4]: greater than 98.5 % (w/w)
Malathion Purity [2, 5]: greater than 98.5 % (w/w)

CCOC(=O)CC(SP(=S)(OC)OC)C(=O)OCC (centres unmarked) [malathion, [(dimethoxyphosphinothioyl)thio]butanedioic acid diethyl ester]
isomalathion content of malathion ([3]; after storage for 6 months at 40° C.): 0.45%
isomalathion content of malathion ([3]; before storage): 0.2%
increase in toxicity as measured by LD50 in mice (mice): 35%

CCOC(=O)CC(SP(=S)(OC)OC)C(=O)OCC (centres unmarked) [Batch II, [(dimethoxyphosphinothioyl)thio]butanedioic acid diethyl ester]
Diethyl fumarate in malathion ([2]; Baseline, time 0): <0.06 % (w/w)
Dimethyl malathion in malathion ([2]; Baseline, time 0): <0.02 % (w/w)
Malaoxon in malathion ([2]; Baseline, time 0): <0.05 % (w/w)
Malathion Purity ([2]; Baseline, time 0): 99.5 % (w/w)
MeOOSPO in malathion ([2]; Baseline, time 0): <0.04 % (w/w)
MeOOSPS in malathion ([2]; Baseline, time 0): 0.09 % (w/w)
MeOSSPO in malathion ([2]; Baseline, time 0): <0.02 % (w/w)
Methyl malathion in malathion ([2]; Baseline, time 0): 0.08 % (w/w)
Diethyl fumarate in malathion ([2]; Storage at 5° C. for 3 months): <0.01 % (w/w)
Dimethyl malathion in malathion ([2]; Storage at 5° C. for 3 months): <0.02 % (w/w)
Malaoxon in malathion ([2]; Storage at 5° C. for 3 months): <0.05 % (w/w)
Malathion Purity ([2]; Storage at 5° C. for 3 months): 99.7 % (w/w)
MeOOSPO in malathion ([2]; Storage at 5° C. for 3 months): <0.04 % (w/w)
MeOOSPS in malathion ([2]; Storage at 5° C. for 3 months): 0.1 % (w/w)
MeOSSPO in malathion ([2]; Storage at 5° C. for 3 months): <0.09 % (w/w)
Methyl malathion in malathion ([2]; Storage at 5° C. for 3 months): 0.07 % (w/w)
Diethyl fumarate in malathion [2, 4]: <0.01 % (w/w)
Dimethyl malathion in malathion [2, 4]: <0.02 % (w/w)
Malaoxon in malathion [2, 4]: <0.05 % (w/w)
Malathion Purity [2, 4]: 99.4 % (w/w)
MeOOSPO in malathion [2, 4]: <0.04 % (w/w)
MeOOSPS in malathion [2, 4]: 0.09 % (w/w)
MeOSSPO in malathion [2, 4]: <0.02 % (w/w)
Methyl malathion in malathion [2, 4]: 0.07 % (w/w)
Diethyl fumarate in malathion [2, 5]: <0.01 % (w/w)
Dimethyl malathion in malathion [2, 5]: <0.02 % (w/w)
Malaoxon in malathion [2, 5]: <0.05 % (w/w)
Malathion Purity [2, 5]: 99.1 % (w/w)
MeOOSPO in malathion [2, 5]: <0.04 % (w/w)
MeOOSPS in malathion [2, 5]: 0.1 % (w/w)
MeOSSPO in malathion [2, 5]: <0.02 % (w/w)
Methyl malathion in malathion [2, 5]: 0.08 % (w/w)
Diethyl fumarate in malathion [2, 6]: <0.02 % (w/w)
Dimethyl malathion in malathion [2, 6]: <0.02 % (w/w)
Malaoxon in malathion [2, 6]: <0.05 % (w/w)
Malathion Purity [2, 6]: 97.4 % (w/w)
MeOOSPO in malathion [2, 6]: 0.05 % (w/w)
MeOOSPS in malathion [2, 6]: 0.2 % (w/w)
MeOSSPO in malathion [2, 6]: <0.02 % (w/w)
Methyl malathion in malathion [2, 6]: 0.08 % (w/w)
